According to US20020120001A1, “Compositions containing tryptamines, cartenoids and tocotrienols and having synergistic antioxidant effect” (Ashni Naturaceuticals, Inc., priority 2000, published 2002):
In brackets after ≈: the same amount, converted by molar mass.

Experiment: peroxy radical scavenging activity (BODIPY 581/591 C11 fluorescence with AMVN radical generator, microplate; Median Effect/CalcuSyn analysis)
[1] = Example 2, concentration of the named component in the 1:1 melatonin and natural astaxanthin mixture
[2] = Example 4, component of the melatonin and mixed tocotrienols mixture

Method: Measurement of peroxy radical scavenging activity of the individual compounds and combinations was performed essentially as described by Naguib (Analytical Biochemistry(1998) 265:290-298) with modifications to allow the assay to be performed on a microplate. The fatty acid indicator 4,4difluoro-5-(4-phenuyl-1,3-butadienyl)-4-bora-3a-4a-diaza-s-indacene-3-undecanate (BODIPY 581/591 C11) was purchased from Molecular Probes (Eugene, Oreg.). As a peroxy radical generator, 2,2′-azobis-2,4-dimethyl valeronitrile (AMVN) was used and obtained from WAKO Chemicals (Richmond, Va.). All standards were of the highest purity commercially available. Additionally, the solvents were of HPLC grade.
Fluorescence measurements were performed using a Packard FluoroCount microplate fluorometer equipped with a temperature-controlled plate holder. All measurements were preformed in a 96-well polypropylene plate with stirring.
Reactions in octane: butyronitrile (9:1, v/v) were carried out at 30° C. All fluorescence measurements were recorded every 15 minutes for 1 hour at excitation wavelengths of 570 nm, with emission at 620 nm. The net protection (area under the curve, AUC) by the antioxidant sample was calculated using the trapezoid method.
The final reaction mixture (200 μl) for the assay contained 0.5 μg/mL BODIPY 581/591C11 and 0.26 M AMVN in octane:butyronitrile (9:1, v/v). Stock solutions of the test samples were made up in chloroform and 6 μL was added to the reaction mixture to achieve the stated concentrations. The reaction was initiated by the addition of the AMVN fluorometric readings were then recorded every 15 minutes for one hour.
Synergy between melatonin and astaxanthin was assessed using CalcuSyn (BIOSOFT, biosoft.com). This statistical package performs multiple drug dose-effect calculations using the Median Effect methods described by T-C Chou and P. Talaly (Trends Pharmacol. Sci. 4:450-454), hereby incorporated by reference.
Cm is determined from the x-intercept of the median-effect plot. The fraction affected by the concentration of the test material is fa and the fraction unaffected by the concentration is fu (fu=1−fa). The exponent m is the parameter signifying the sigmoidicity or shape of the dose-effect curve. It is estimated by the slope of the median-effect plot.
The median-effect plot is a plot of x=log(C) vs y=log(fa/fu) and is based on the logarithmic form of Chou's median-effect equation. The goodness of fit for the data to the median-effect equation is represented by the linear correlation coefficient r of the median-effect plot.
Synergy of test components was quantified using the combination index (CI) parameter. The CI of Chou-Talaly is based on the multiple drug-effect and is derived from enzyme kinetic models (Chou, T.-C. and Talalay, P. (1977) A simple generalized equation for the analysis of multiple inhibitions of Michaelis-Menten kinetic systems. J. Biol. Chem. 252:6438-6442). The equation determines only the additive effect rather than synergism or antagonism. However, we define synergism as a more than the expected additive effect, and antagonism as a less than the expected additive effect as proposed by Cho and Talalay in 1983 (Trends Pharmacol. Sci. (1983) 4:450-454).
Dose-response curves were described with each test article separately and then in a two-way combination. For the individual dose-response curves, concentrations of melatonin included 100, 500 and 1000 μM, while the concentrations of astaxanthin were 49, 98, 490, and 980 μM.

Which IC75 (Example 1, listed as of test material alone) does the source give for `CC1=C(/C=C/C(C)=C/C=C/C(C)=C/C=C/C=C(C)/C=C/C=C(C)/C=C/C2=C(C)C(=O)[C@@H](O)CC2(C)C)C(C)(C)C[C@H](O)C1=O` [Astaxanthin alone, 3, 3′-dihydroxy-β,β-carotene-4, 4′-dieto-β-carotene] here?
Its IC75 is 185 (107-319) μM.

And the IC50 (Example 5, test material alone)?
The IC50 was 148 (94-232) μg test/mL.

Which IC50 (Example 3, test material alone) does the source give for `CC1=C[C@H](O)CC(C)(C)[C@H]1/C=C/C(C)=C/C=C/C(C)=C/C=C/C=C(C)/C=C/C=C(C)/C=C/C1=C(C)C[C@@H](O)CC1(C)C` [Lutein alone, lutein] here?
The IC50 was 61 µM.

Which IC50 (Example 1, test material alone, 95% confidence interval in parentheses) does the source give for `COc1ccc2[nH]cc(CCNC(C)=O)c2c1` [Melatonin alone, N-acetyl-5-methoxytryptamine] here?
Its IC50 is 284 µM.

What about the “increase in antioxidant potency” value (Example 2, component in 1:1 melatonin and natural astaxanthin combination versus alone) of the same molecule?
The value was 3.2 fold.

And the IC50 [1]?
The IC50 was 38 µg/mL.

And the IC75 [1]?
The IC75 was 54 µg/mL (≈ 232 µM).

What about the IC90 [1] of the same molecule?
The IC90 was 77 µg/mL (≈ 331 µM).

What about the IC50 (Example 2, test material alone) of the same molecule?
Its IC50 is 120 (105-137) μg/mL.

What about the IC50 (Example 3, test material alone) of the same molecule?
The IC50 was 283 µM.

And the “increase in antioxidant potency” value (Example 4, component in 1:1 melatonin and mixed tocotrienols combination versus alone)?
The value was 3.1 fold.

And the “concentration for 50 percent inhibition of peroxy radical formation” value [2]?
Its value is 17 µg/mL.

And the “concentration for 75 percent inhibition of peroxy radical formation” value [2]?
The value was 21 µg/mL.

What about the “concentration for 90 percent inhibition of peroxy radical formation” value [2] of the same molecule?
The value was 26 µg/mL.

And the IC50 (Example 4, test material alone)?
Its IC50 is 53 (25-112) μg test/mL.

What about the IC50 (Example 5, test material alone) of the same molecule?
The IC50 was 53 (25-112) μg test/mL.

For `CC1=C(/C=C/C(C)=C/C=C/C(C)=C/C=C/C=C(C)/C=C/C=C(C)/C=C/C2=C(C)CCCC2(C)C)C(C)(C)CCC1` [β-Carotene alone, β-carotene], which IC50 (Example 3, test material alone) is on record?
Its IC50 is 366 µM.
